Data: patent US20200197409A1, “HEPATITIS B VIRUS SURFACE ANTIGEN INHIBITOR” (FUJIAN COSUNTER PHARMACEUTICAL CO., LTD., priority 2017, published 2020)
pEC50: −log10 of the molar value.

Legend:
HBV = assay: Anti-HBV activity on the hepatitis B virus mouse model (AAV-HBV); assay type: in vivo, C57BL/6 mice; conditions: for HBsAg content in the plasma of the mice: PO
Protocol: The AAV vector-mediated HBV infected mouse model is a fast and efficient HBV model. Using the high hepatotropism of the AAV vector, the recombinant adeno-associated type 8 virus carrying 1.3 copies of the HBV genome (rAAV8-1.3HBV) is injected into the tail vein of mice, which can efficiently introduce the carried 1.3 copy HBV genome into hepatocytes. Due to the characteristics of the AAV viral vector, the vector mediated by it can express for a long time. The AAV/HBV model can continuously replicate HBV DNA and express HBsAg and HBeAg in the liver of the mice.
The anti-HBV efficacy of the test compound in vivo was evaluated by determining the content of HBsAg in the serum of the mice after treatment with the test compound on AAV/HBV mouse mode.
C57BL/6 mice, 10% HP-f-CD as vehicle, reference compound TDF (Tenofovir), test compound, recombinant virus rAAVS-1.3HBV, main reagents of the experiment including QIAamp96 DNA kit and TaqMan® Universal PCR Master Mix, Hepatitis B Virus Surface Antigen Detection Kit, instruments including: centrifuge (Beckman Allegra X-15R), tissue grinder (QIAGEN-Tissue lyser II) and spectrophotometer (Thermo-NANODROP 1000).
a) All mice were orally administered on the 28th day after the virus injection, and the day was set as day 0. Submaxillary blood of all mice was collected for serum collection before administration. The mice were administered once a day for four weeks.
b) Submaxillary blood of all mice was collected for serum collection twice a week, the volume of the blood collected each time was approximately 100 μL.
c) On the 28th day, all mice were euthanized and the blood was collected from the heart for serum collection.
The content of HBsAg in the serum of the mice was determined by ELISA. The experimental procedure refers to the specification of HBsAg ELISA kit.
a) The anti-HBV activity of the test compound on AAV/HBV mice model was evaluated by determining the content of HBsAg in the plasma of the mice.

HBV-DNA = assay: HBV DNA content in HepG2.2.15 cells culture supernatant by real time-qPCR; assay type: cell-based; conditions: supernatant on the 8th day
Protocol: 2.1 Cell Line: HepG2.2.15 Cells
3.6 15 μL of the reaction mixture was added into each well of a 96-well PCR plate, followed by addition of 10 μL of sample DNA or HBV DNA standards into each well.
3.7 PCR reaction conditions: heating at 95° C. for 10 minutes, then denaturation at 95° C. for 15 seconds, extension at 60° C. for 1 minute, a total of 40 cycles.

[1] = Microsomal metabolism stability, rat; assay type: in vitro ADME; conditions: rat liver microsomes 0.5 mg/mL, 1 μM, NADPH, 37° C.
Protocol: (§1) The microsomal metabolism stability of the test compound (Embodiment 6) in three species was determined. 1 μM test compound and microsomes (0.5 mg/mL) supplemented with NADPH regeneration system were incubated at 37° C. The positive controls were testosterone (3A4 substrate), propafenone (2D6 substrate) and diclofenac (2C9 substrate), respectively. The positive control and microsomes (0.5 mg/mL) supplemented with NADPH regeneration system were incubated at 37° C. Samples at different time points (0, 5, 10, 20, 30, and 60 minutes) were mixed directly with cold acetonitrile containing an internal standard to terminate the reaction. The compound and microsomes were incubated for 60 minutes without the NADPH regeneration system. One parallel was set at each time point (n=1). The samples were analyzed by LC/MS/MS. The concentration of the compound was indicated by the ratio of the peak area of the analyte to the peak area of the internal standard.

[2] = Plasma protein binding rate, CD-1 mouse plasma; assay type: in vitro ADME; conditions: plasma of CD-1 mouse, dialysis 4 hours at 37° C.
Protocol: The protein binding rate of Embodiment 6 in the plasma of human, CD-1 mouse and SD rat was determined, 796 μL of blank plasma was taken from human, CD-1 mice and SD rats, and 4 μL of test compound working solution (400 μM) or warfarin working solution (400 μM) was added to achieve a final concentration of the test compound and the warfarin in plasma samples of 2 μM. The samples were mixed thoroughly. The final concentration of organic phase DMSO was 0.5%, 50 μL of the test compound and warfarin plasma sample were transferred into sample receiving plates (three parallels), and a relative volume of corresponding blank plasma or buffer was immediately added, ensuring that the final volume of each sample well was 100 μL, and the volume ratio of plasma to dialysis buffer was 1:1. 400 μL of stop solution was added to these samples, which was used as a T0 sample for the determination of recovery and stability. […] The protein binding rate and the recovery rate were calculated by the formulas: % Protein unbinding rate (%)=100*Drug concentration through the dialysis membrane/drug concentration not through the dialysate: Protein binding rate (%)=100-% protein unbinding rate: % Recovery=100*(Drug concentration through the dialysis membrane+Drug concentration not through the dialysate)/Total drug concentration before undialysis. Protein binding rate and recovery rate were calculated.

[3] = Microsomal metabolism stability, mouse; assay type: in vitro ADME; conditions: mouse liver microsomes 0.5 mg/mL, 1 μM, NADPH, 37° C.
Protocol: as §1

In the case of `COCCCOc1cc2c(cc1OC)-c1cc(=O)c(C(=O)O)cn1[C@H](C(C)(C)C)CO2` [Embodiment 6], the “effect on the content of HBsAg on the AAV/HBV mouse model (in words)” value (HBV; 3, 10, 30 mg/kg PO once a day for four weeks) was “significantly reduce”, the “HBsAg content in the plasma of the mice” value (HBV; day 4, 3 mg/kg) was 3.68 IU/mL and the “HBsAg content in the plasma of the mice” value (HBV; day 4, 10 mg/kg) was 3.56 IU/mL. For the same molecule, the “HBsAg content in the plasma of the mice” value (HBV; day 4, 30 mg/kg) was 3.38 IU/mL, the “HBsAg content in the plasma of the mice” value (HBV; day 7, 3 mg/kg) was 3.70 IU/mL and the “HBsAg content in the plasma of the mice” value (HBV; day 7, 10 mg/kg) was 3.69 IU/mL. The “HBsAg content in the plasma of the mice” value (HBV; day 7, 30 mg/kg) was 3.44 IU/mL, the “HBsAg content in the plasma of the mice” value (HBV; day 11, 3 mg/kg) was 3.76 IU/mL and the “HBsAg content in the plasma of the mice” value (HBV; day 11, 10 mg/kg) was 3.92 IU/mL. For the same molecule, the “HBsAg content in the plasma of the mice” value (HBV; day 11, 30 mg/kg) was 3.64 IU/mL, the “HBsAg content in the plasma of the mice” value (HBV; day 14, 3 mg/kg) was 3.70 IU/mL and the “HBsAg content in the plasma of the mice” value (HBV; day 14, 10 mg/kg) was 3.61 IU/mL. For the same molecule, the “HBsAg content in the plasma of the mice” value (HBV; day 14, 30 mg/kg) was 3.40 IU/mL, the “HBsAg content in the plasma of the mice” value (HBV; day 18, 3 mg/kg) was 3.85 IU/mL and the “HBsAg content in the plasma of the mice” value (HBV; day 18, 10 mg/kg) was 3.90 IU/mL. For the same molecule, the “HBsAg content in the plasma of the mice” value (HBV; day 18, 30 mg/kg) was 3.55 IU/mL, the “HBsAg content in the plasma of the mice” value (HBV; day 21, 3 mg/kg) was 3.78 IU/mL and the “HBsAg content in the plasma of the mice” value (HBV; day 21, 10 mg/kg) was 3.75 IU/mL. For the same molecule, the “HBsAg content in the plasma of the mice” value (HBV; day 21, 30 mg/kg) was 3.46 IU/mL, the “HBsAg content in the plasma of the mice” value (HBV; day 25, 3 mg/kg) was 3.76 IU/mL and the “HBsAg content in the plasma of the mice” value (HBV; day 25, 10 mg/kg) was 3.83 IU/mL. For the same molecule, the “HBsAg content in the plasma of the mice” value (HBV; day 25, 30 mg/kg) was 3.37 IU/mL, the “HBsAg content in the plasma of the mice” value (HBV; day 28, 3 mg/kg) was 3.96 IU/mL and the “HBsAg content in the plasma of the mice” value (HBV; day 28, 10 mg/kg) was 3.87 IU/mL. For the same molecule, the “HBsAg content in the plasma of the mice” value (HBV; day 28, 30 mg/kg) was 3.53 IU/mL, the “HBsAg content in the plasma of the mice” value (HBV; day −1, 3 mg/kg) was 4.54 IU/mL and the “HBsAg content in the plasma of the mice” value (HBV; day −1, 10 mg/kg) was 4.51 IU/mL. The “HBsAg content in the plasma of the mice” value (HBV; day −1, 30 mg/kg) was 4.48 IU/mL, the “tolerance of the mice during the course of treatment” value (HBV; once a day for four weeks) was “good tolerance” and the “changes of the body weight of the mice” value (HBV; once a day for four weeks, FIG. 3) was “better than RG7834”. For the same molecule, the pEC50 (HBV-DNA) was 8.59, the “remaining ratio at T=60 min” value [1] was 113.0% and the fraction unbound at 4 h, 2 μM [2] was 0.498. The “remaining ratio at T=60 min” value [3] was 102.5%.
